The target in this experiment is T1, Human BACE (Homo sapiens, UniProt P56817).
T1 construct: Recombinant BACE (extracellular domain, expressed in baculovirus and purified using standard methods); made in house
Description: Test 1: Inhibition of Human BACE. It counts as biochemical. The settings on record: recombinant BACE extracellular domain, fluorescence-quenched APP-derived peptide substrate, acetate buffer pH 4.5. On the procedure: Test 1: Inhibition of Human BACE
Recombinant BACE (extracellular domain, expressed in baculovirus and purified using standard methods) at 0.1-10 nM concentration is incubated with the test compound at various concentrations for 1 hour at room temperature in 10-100 mM acetate buffer, pH 4.5, containing 0.1% CHAPS. Synthetic fluorescence-quenched peptide substrate, derived from the sequence of APP and containing a suitable fluorophore-quencher pair is added to a final concentration of 1-5 μM and the increase in fluorescence is recorded at a suitable excitation/emission wavelength in a microplate spectro-fluorimeter for 5-30 minutes in 1-minute intervals. IC50 values are calculated from percentage of inhibition of BACE-activity as a function of the test compound concentration.

The results in this text go back to patent US20100144741A1, “ETHANOLAMINE DERIVATIVES USEFUL AS BACE INHIBITORS” (priority 2006, published 2010).

pIC50: −log10 of the molar value.

T1 sequence (P56817 46-457 limits assumed): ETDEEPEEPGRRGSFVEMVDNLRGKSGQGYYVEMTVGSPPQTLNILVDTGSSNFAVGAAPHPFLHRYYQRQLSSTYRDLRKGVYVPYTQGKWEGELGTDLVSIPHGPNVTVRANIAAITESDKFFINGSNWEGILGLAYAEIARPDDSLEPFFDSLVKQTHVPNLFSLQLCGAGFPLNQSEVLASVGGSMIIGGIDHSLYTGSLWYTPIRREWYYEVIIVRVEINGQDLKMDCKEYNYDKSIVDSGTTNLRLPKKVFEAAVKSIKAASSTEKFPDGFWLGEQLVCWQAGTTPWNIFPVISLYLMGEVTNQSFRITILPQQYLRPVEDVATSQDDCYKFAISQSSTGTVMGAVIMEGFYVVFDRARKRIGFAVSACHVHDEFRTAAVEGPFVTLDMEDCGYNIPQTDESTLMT

As a reminder, the pIC50 is the IC50 on a negative log10 scale, so that one unit is a factor of ten. Regarding `CC(=O)N[C@@H](Cc1ccc(Nc2cc(-c3ccccc3)ncn2)cc1)[C@H](O)CNC1(c2cccc(C(C)C)c2)CC1` [Example 2, N-{(1S,2R)-2-Hydroxy-3-[1-(3-isopropyl-phenyl)-cyclopropylamino]-1-[4-(6-phenyl-pyrimidin-4-ylamino)-benzyl]-propyl}-acetamide], the negative-log IC50 (pIC50) is 4.64.
